# Test results: patent publication US8796246B2, “9, 10-secopregnane derivative and pharmaceutical” (Nippon Shinyaku Co., Ltd., priority 2006, dated 2014)
# Columns and labels:
# [1] = Action to increase the urinary excretion of calcium (2), intravenous administration; format: in vivo, SD male rats; settings: intravenous 22.4 nmol/kg; for Calcium in Urine: urine collected within 24 hours after administration; for Ratio of Calcium in Urine (to control): urine within 24 hours, test compound/control group
# Method: The compound of the invention mentioned in Example 42, 61 or 66, or maxacalcitol in saline containing 0.1% Triton X 100/5.6% DMSO (22.4 nmol/kg) was subjected to an intravenous administration to SD male rats (7 weeks of age) Saline containing 0.1% Triton X 100/5.6% DMSO was administered to a control group. The calcium concentration in urine collected within 24 hours after the administration was measured and the urinary excretion of calcium ([calcium concentration in urine]×[amount of urine]) and the ratio of urinary excretion of calcium based on the control group ([calcium amount in urine in administration of the test compound]/[calcium amount in urine in the control group]) were calculated.
# [2] = Metabolic rate in human liver microsome; format: in vitro ADME; settings: pooled human liver microsome 1 mg/mL protein, NADPH-regenerating system, 37° C., 2-60 minutes, HPLC
# Method: The compounds of the invention mentioned in Examples and maxacalcitol were compared with each other with respect to the metabolic rate in human liver microsome.
# As to the pooled human liver microsome (HHM-0323), those manufactured by Tissue Transformation Technologies were used. A 0.25 M potassium phosphate buffer (pH 7.4) (200 μL), 5 μL of a 250 μM solution of each compound to be tested in DMSO, 50 μL of an NADPH-regenerating system (where 20 mg of β-NADP^+, 70 mg of glucose-6-phosphate, 40 units of glucose-6-phosphate dehydrogenase and 20 mg of magnesium chloride were dissolved in 1 mL of distilled water) and 220 μL of distilled water were added to a microtube and the mixture was subjected to a preincubation for 5 minutes at 37° C. Reaction was started by an addition of 25 μL of human liver microsome (final concentration of protein: 1 mg/mL). Incubation was performed for 2, 10, 30 or 60 minutes and the reaction was stopped by an addition of 500 μL of acetonitrile. After centrifugation at 13,000 rpm for 5 minutes, each test compound in the supernatant (25 μL) was measured by HPLC under the following conditions.
# Inertsil ODS-3 (4.6×150 mm; GL Science) was used as a column. With regard to the mobile phase, a solution A (acetonitrile/0.1% aqueous solution of ammonium acetate=10/90) and a solution B (acetonitrile/0.1% aqueous solution of ammonium acetate=90/10) were used under the linear gradient conditions mentioned in Tables 5 to 7. The column temperature, the flow rate and the wavelength for detection were set at 40° C., 1.0 mL/min. and UV 250 or 270 nm, respectively.
# The compound mentioned in Example 38 was analyzed under the condition shown in Table 6; the compounds mentioned in Examples 55, 56, 68, 69, 72 and 73 were under the condition shown in Table 7; and the other compounds were under the condition shown in Table 5.
# The compounds described in Examples 40, 43 to 48, 50, 55, 56, 58, 60, 61, 63 and 65 to 73 were analyzed under the condition of UV 250 nm; and the other compounds were under the condition of UV 270 nm.
# From the HPLC test results as above, the metabolic rate of the test compound was calculated.
# [3] = tested on: human acute myelogenous leukemia cell line HL-60; assay: Ability to induce differentiation of HL-60 cells (oxygen radical production after phorbol ester, WST-1); format: cell-based; settings: 72 hours incubation, then WST-1 and phorbol 12,13-didecanoate for 4 hours, absorbance at 450 nm
# Excerpt: It is known that the human acute myelogenous leukemia cell line HL-60is differentiated into neutrophil-like cells by active vitamin D or the like. Thus, the cells after the differentiation begin to express a surface marker such as CD11and CD32and, at the same time, they produce an oxygen radical by stimulation with a phorbol ester or the like. In this test, the above-mentioned property was utilized. As an index of the ability to induce differentiation of the HL-60cells, the amount of the oxygen radical produced by stimulation with a phorbol ester was measured, and the compounds of the invention mentioned in Examples were compared with maxacalcitol with respect to the vitamin D3activity thereof. In use of commercial reagents and kits, if any, the indications attached thereto were referred to.
# HL-60cells (supplied from ATCC) were seeded on a 96-well plate at 5×10^3cells/100μL/well and a test compound in two-fold dilution series from 10^−7M was added to the second to the twelfth rows (maximum concentration: the second row). The first row was used for blank. After incubation for 72 hours under a moisturized condition in the presence of 5% CO2 at 37° C. using a CO2 incubator, 10 μL of PBS containing 50 mM WST-1 (manufactured by Takara Bio) and 10 μM phorbol 12,13-didecanoate (manufactured by SIGMA) were added to each well followed by further incubation for 4 hours. Absorbance (reference wavelength: […]) at […] of the WST-1 formazane dye generated by conversion from WST-1 by oxygen radical produced from the differentiated HL-60 cells was measured by a Benchmark microplate reader (manufactured by BioRad). An absorbance meter control software MPM3 (manufactured by BioRad) was used and, from a concentration-absorbance curve, the 50%-maximal effective concentration (hereinafter, referred to as “EC50”) of each was determined by a logistic curve regression.
# [4] = Action to increase the urinary excretion of calcium (1), percutaneous administration; format: in vivo, SD male rats; settings: percutaneous 10 μg/200 μL/kg/day once a day for 4 days; for Calcium in Urine within 24 hours: accumulated excretion 0 to 24 hours; for Calcium in Urine within 48 hours: accumulated excretion 0 to 48 hours; for Calcium in Urine within 72 hours: accumulated excretion 0 to 72 hours; for Calcium in Urine within 96 hours: accumulated excretion 0 to 96 hours
# Method: The compound of the invention mentioned in Example 1, 36, 43, 47, 48, 55 or 70 or maxacalcitol in ethanol containing 0.5% DMSO was repeatedly subjected to a percutaneous administration (10 μg/200 μL/kg/day) once a day for 4 days onto the back of SD male rats (7 weeks of age). Ethanol containing 0.5% DMSO was administered to a control group. The calcium concentration in urine collected every 24 hours was measured and multiplied by the amount of urine to calculate the urinary excretion of calcium. The calcium excretion in urine shown in Table 3 indicates the accumulated calcium excretion from 0 to 24 hours, from 0 to 48 hours, from 0 to 72 hours, and from 0 to 96 hours.
# [5] = Action to increase calcium concentration in serum, percutaneous administration; format: in vivo, SD male rats; settings: for Serum Calcium Concentration: percutaneous 33 μg/200 μL/kg/day once a day for 7 days, blood 24 hours after final administration
# Method: The compound of the invention mentioned in Example 1 or maxacalcitol in ethanol containing 0.3% DMSO was repeatedly subjected to percutaneous administration (33 μg/200 μL/kg/day) once a day for 7 days onto the back of SD male rats (7 weeks of age). Ethanol containing 0.3% DMSO was administered to a control group. At 24 hours after the final administration, blood was collected and the calcium concentration in serum was measured.
Compound,Calcium in Urine [1] [mg],Ratio of Calcium in Urine (to control) [1] [%],Metabolic Rate [2] [pmol/min/mg],EC50 [3] [pM],Calcium in Urine within 24 hours [4] [mg],Calcium in Urine within 48 hours [4] [mg],Calcium in Urine within 72 hours [4] [mg],Calcium in Urine within 96 hours [4] [mg],EC50 ([3]; Homo sapiens) [pM],effect on the calcium concentration in serum (in words) ([5]; percutaneous 33 μg/200 μL/kg/day for 7 days),Serum Calcium Concentration [5] [mg/dL]
"CCC(O)(CC)CCC(=O)O[C@@H](C)[C@H]1CC[C@H]2/C(=C/C=C3C[C@@H](O)C(C)[C@H](O)C3)CCC[C@]12C (stereo partly drawn) [Compound of Example 66, (1R,2β,3R,20S) -2-methyl-19-nor-20-[4-ethyl-4-hydroxyhexanoyloxy]-9,10-secopregna-5Z,7E-diene-1,3-diol]",0.5,100,116,,,,,,,,
"CC1[C@H](O)CC(=C/C=C2\CCC[C@]3(C)[C@@H]([C@H](C)OC(=O)CCC(C)(O)C(F)(F)F)CC[C@@H]23)C[C@H]1O (stereo partly drawn) [Compound of Example 61, (1R,2β,3R,20S)-2-methyl-19-nor-20-(5,5,5-trifluoro-4-hydroxy-4-methylpentanoyloxy)-9,10-secopregna-5Z,7E-diene-1,3-diol]",0.6,120,188,1200,,,,,,,
"CCC(O)(/C=C/C(=O)O[C@@H](C)[C@H]1CC[C@H]2/C(=C/C=C3C[C@@H](O)C[C@H](O)C3)CCC[C@]12C)CC [Compound of Example 42, (1R,3R,20S)-19-nor-20-[(2E)-4-ethyl-4-hydroxyhex-2-enoyloxy]-9,10-secopregna-5Z,7E-diene-1,3-diol]",0.8,160,34,1300,,,,,,,
"C=C1/C(=C\C=C2/CCC[C@]3(C)C([C@H](C)OC(=O)CCC(C)(O)C(F)(F)F)=CC[C@@H]23)C[C@@H](O)C[C@@H]1O (single isomer, unassigned) [Compound of Example 70, (1S,3R,20S)-20-[(4R) or (4S)-5,5,5-trifluoro-4-hydroxy-4-methylpentanoyloxy]-9,10-secopregna-5Z,7E,10(19),16-tetraene-1,3-diol]",,,60,130,1.4,1.9,2.7,3.7,,,
"(1S,3R,20S)-20-[(4S) or (4R)-5,5,5-trifluoro-4-hydroxy-4-methylpentanoyloxy]-9,10-secopregna-5Z,7E,10(19)-triene-1,3-diol [Compound of Example 36]",,,82,410,1.0,1.7,2.8,4.5,,,
"C=C1/C(=C\C=C2/CCC[C@]3(C)[C@@H]([C@H](C)OCCC(C)(C)O)CC[C@@H]23)C[C@@H](O)C[C@@H]1O [Maxacalcitol, (1S,3R,20S)-20-(3-hydroxy-3-methylbutyloxy)-9,10-secopregna-5Z,7E,10(19)-trien-1,3-diol, reference compound]",2.3,460,10,,2.6,4.5,8.5,13.9,5400,increased the calcium concentration in serum,15.0
"C=C1/C(=C\C=C2/CCC[C@]3(C)[C@@H]([C@H](C)OC(=O)CCC(C)(C)O)CC[C@@H]23)C[C@@H](O)C[C@@H]1O [Compound of Example 1, (1S,3R,20S)-20-(4-hydroxy-4-methylpentanoyloxy)-9,10-secopregna-5Z,7E,10(19)-triene-1,3-diol]",,,78,1500,0.8,1.4,2.3,3.8,,,11.8
"CC(OC(=O)CCC(C)(O)C(F)(F)F)C1CCC2C(=CC=C3CC(O)CC(O)C3)CCCC21C [Compound of Example 43, (1R,3R,20S)-19-nor-20-(5,5,5-trifluoro-4-hydroxy-4-methylpentanoyloxy)-9,10-secopregna-5Z,7E-diene-1,3-diol]",,,74,450,1.2,1.9,3.3,4.6,,,
"CC(OC(=O)CCC(C)(O)C(F)(F)F)C1=CCC2C(=CC=C3CC(O)CC(O)C3)CCCC12C [Compound of Example 47, (1R,3R,20S)-19-nor-20-(5,5,5-trifluoro-4-hydroxy-4-methylpentanoyloxy)-9,10-secopregna-5Z,7E,16-triene-1,3-diol]",,,95,630,1.2,1.8,2.7,3.7,,,
